# Results taken from ChEMBL document CHEMBL1148760, “Novel generation of pH indicators for proton magnetic resonance spectroscopic imaging” (J Med Chem, 2007).
# Assays:
# [1] = Dissociation constant, pKa in deuterated water solution; type: physicochemical; settings: read-out: Apparent_pKa
# [2] = Dissociation constant, pKa in presence of fetal bovine serum; type: physicochemical; settings: cattle, solution containing fetal bovine serum; read-out: Apparent_pKa
# C6 = test: Cytotoxicity in rat C6 cells assessed as intracellular release of lactic dehydrogenase; type: functional
pKa [1],pKa [2],SMILES,Activity (C6) [%]
6.45,,OC(Cn1ccnc1)Cn1ccnc1,
6.56,6.67,O[C@@H](Cn1ccnc1)[C@@H](O)Cn1ccnc1,<10
7,6.63,O[C@@H]([C@H](O)[C@H](O)Cn1ccnc1)[C@H](O)Cn1ccnc1,<10
